{"source": "patent US9371337B2", "about": "“β-lactamase inhibitors” (The Regents of the University of California, priority 2011, dated 2016)", "conditions_in_all_cases": "antibiotic alone", "key": {"[1]": {"system": "E. coli overproducing chromosomally-mediated class C β-lactamase", "experiment": "MIC of third-generation cephalosporins alone and with compounds 4 or 9 (Table 3)", "type": "cell-based, Escherichia coli", "source_text": "(§1) Antimicrobial activity was investigated quantitatively to determine the minimum inhibitory concentrations (MICs) of the β-lactam/inhibitor combination necessary to inhibit the bacterial growth (Table 3). The MICs of β-lactams alone against the strains corresponded to a high level of resistance according to Clinical and Laboratory Standards Institute (CLSI) standards. (Clinical and Laboratory Standards Institute, Performance standards for antimicrobial susceptibility testing, 20th Informational Supplement, M100-S20 2010) The compounds had no measurable antibiotic activity when used alone.\n(§2) Susceptibility testing was performed and interpreted following the guidelines of CLSI. (Clinical and Laboratory Standards Institute, Performance standards for antimicrobial susceptibility testing, 20th Informational Supplement, M100-S20 2010) The compounds were dissolved in 50% DMSO, and dilutions were performed using Muller-Hinton medium. An adequate final concentration was obtained to determine the minimum inhibitory concentrations (MICs). The concentration of DMSO was maintained below 5%. The inhibitors were tested for synergy with the third-generation β-lactams ceftazidime and cefotaxime against several clinical bacteria. […] Each value reported reflects the average of three independent experiments. […] A Klebsiella pneumoniae isolate produced the inducible plasmid-mediated class C enzyme DHA-1. The Friedman's test and the Wilcoxon signed rank test were used to compare MIC values. Statistical significance was established at p<0.05."}, "[2]": {"system": "CTX-M-14-producing E. coli", "experiment": "MIC of third-generation cephalosporins alone and with compounds (Table 6)", "type": "cell-based, Escherichia coli", "procedure": "(§3) The anti-resistance activity of inhibitors was investigated by the determination of the minimum inhibitory concentrations (MICs) of the β-lactam/inhibitor combination necessary to inhibit the growth of clinically-isolated bacteria resistant to third-generation cephalosporins via expression of class A or class C β-lactamases (Table 6).\n(§4) Susceptibility testing was performed and interpreted following the guidelines of CLSI. (Clinical and Laboratory Standards Institute, Performance standards for antimicrobial susceptibility testing, 20th Informational Supplement, M100-S20 2010) The compounds were dissolved in 50% DMSO, and dilutions were performed using Muller-Hinton medium. An adequate final concentration was obtained to determine the minimum inhibitory concentrations (MICs). The concentration of DMSO was maintained below 5%. The inhibitors were tested for synergy with the third-generation β-lactams ceftazidime and cefotaxime against several clinical bacteria. The ratio of β-lactams to inhibitors was 1:4. Each value reported reflects the average of three independent experiments. […] The Friedman's test and the Wilcoxon signed rank test were used to compare MIC values. Statistical significance was established at p<0.05.\n(§5) Table 6. MICs (μg/ml) of third-generation cephalosporins alone and in association with the compounds (ratio 1/4) for clinical bacteria. CTX, cefotaxime and CAZ, ceftazidime. ^1, AmpC-overproducing bacteria; ^2, CTX-M-14-producing E. coli; ^3, KPC-2-producing K. pneumoniae; ^4, OXA-48-producing K. pneumoniae; ^5, NDM-1-producing C. freundii."}, "[3]": {"system": "E. coli 145, AmpC-overproducing", "experiment": "MIC of third-generation cephalosporins alone and with compounds (Table 6)", "type": "cell-based, Escherichia coli", "procedure": "as §3, §4, §5"}, "[4]": {"system": "E. coli 142, AmpC-overproducing", "experiment": "MIC of third-generation cephalosporins alone and with compounds (Table 6)", "type": "cell-based, Escherichia coli", "procedure": "as §3, §4, §5"}, "[5]": {"system": "E. coli 146, AmpC-overproducing", "experiment": "MIC of third-generation cephalosporins alone and with compounds (Table 6)", "type": "cell-based, Escherichia coli", "procedure": "as §3, §4, §5"}, "[6]": {"system": "E. coli R1, AmpC-overproducing", "experiment": "MIC of third-generation cephalosporins alone and with compounds (Table 6)", "type": "cell-based, Escherichia coli", "procedure": "as §3, §4, §5"}, "[7]": {"system": "E. coli, AmpC-overproducing", "experiment": "MIC of third-generation cephalosporins alone and with compounds (Table 6)", "type": "cell-based, Escherichia coli", "procedure": "as §3, §4, §5"}, "[8]": {"system": "E. coli 144, AmpC-overproducing", "experiment": "MIC of third-generation cephalosporins alone and with compounds (Table 6)", "type": "cell-based, Escherichia coli", "procedure": "as §3, §4, §5"}, "[9]": {"system": "K. pneumoniae producing the plasmid-mediated class C β-lactamase DHA-1", "experiment": "MIC of third-generation cephalosporins alone and with compounds 4 or 9 (Table 3)", "type": "cell-based, Klebsiella pneumoniae", "source_text": "as §1, §2"}, "[10]": {"system": "P. aeruginosa, AmpC-overproducing", "experiment": "MIC of third-generation cephalosporins alone and with compounds (Table 6)", "type": "cell-based, Pseudomonas aeruginosa", "procedure": "as §3, §4\nTable 6. MICs (μg/ml) of third-generation cephalosporins alone and in association with the compounds (ratio 1/4) for clinical bacteria. […]"}, "[11]": {"system": "C. freundii, AmpC-overproducing", "experiment": "MIC of third-generation cephalosporins alone and with compounds (Table 6)", "type": "cell-based, Citrobacter freundii", "procedure": "as §3, §4, §5"}, "[12]": {"system": "C. freundii 101, AmpC-overproducing", "experiment": "MIC of third-generation cephalosporins alone and with compounds (Table 6)", "type": "cell-based, Citrobacter freundii", "procedure": "as §3, §4, §5"}, "[13]": {"system": "NDM-1-producing C. freundii", "experiment": "MIC of third-generation cephalosporins alone and with compounds (Table 6)", "type": "cell-based, Citrobacter freundii", "procedure": "as §3, §4, §5"}, "[14]": {"system": "C. freundii overproducing chromosomally-mediated class C β-lactamase", "experiment": "MIC of third-generation cephalosporins alone and with compounds 4 or 9 (Table 3)", "type": "cell-based, Citrobacter freundii", "source_text": "as §1, §2"}, "[15]": {"system": "P. aeruginosa overproducing chromosomally-mediated class C β-lactamase", "experiment": "MIC of third-generation cephalosporins alone and with compounds 4 or 9 (Table 3)", "type": "cell-based, Pseudomonas aeruginosa", "source_text": "as §1, §2"}}, "data": [{"smiles": "CO/N=C(\\C(=O)N[C@@H]1C(=O)N2C(C(=O)O)=C(COC(C)=O)CS[C@H]12)c1csc(N)n1", "note": "[Cefotaxime]", "values": [{"measurement": "MIC, cephalosporin alone", "setting": "[1]", "result": 8, "unit": "µg/mL"}, {"measurement": "MIC, cephalosporin alone", "setting": "[2]", "result": 256, "unit": "µg/mL"}, {"measurement": "MIC, cephalosporin alone", "setting": "[3]", "result": 16, "unit": "µg/mL"}, {"measurement": "MIC, cephalosporin alone", "setting": "[4]", "result": 4, "unit": "µg/mL"}, {"measurement": "MIC, cephalosporin alone", "setting": "[5]", "result": 8, "unit": "µg/mL"}, {"measurement": "MIC, cephalosporin alone", "setting": "[6]", "result": 4, "unit": "µg/mL"}, {"measurement": "MIC, cephalosporin alone", "setting": "[7]", "result": 8, "unit": "µg/mL"}, {"measurement": "MIC, cephalosporin alone", "setting": "[8]", "result": 16, "unit": "µg/mL"}, {"measurement": "MIC, cephalosporin alone", "setting": "[9]", "result": 8, "unit": "µg/mL"}, {"measurement": "MIC, cephalosporin alone", "setting": "[10]", "result": ">128", "unit": "µg/mL"}, {"measurement": "MIC, cephalosporin alone", "setting": "[11]", "result": 16, "unit": "µg/mL"}, {"measurement": "MIC, cephalosporin alone", "setting": "[12]", "result": 64, "unit": "µg/mL"}, {"measurement": "MIC, cephalosporin alone", "setting": "[13]", "result": 512, "unit": "µg/mL"}, {"measurement": "MIC, cephalosporin alone", "setting": "[14]", "result": 16, "unit": "µg/mL"}, {"measurement": "MIC, cephalosporin alone", "setting": "[15]", "result": ">128", "unit": "µg/mL"}]}]}
